Results as given in ChEMBL document CHEMBL4673209, “Discovery of a novel potent GPR40 full agonist” (Bioorg Med Chem Lett, 2018).
Calls of active or inactive are those of the source. The rule behind the calls is not given here.

Assays:
[1] = biological target: Free fatty acid receptor 1 (Rattus norvegicus, UniProt Q8K3T4); experiment: Agonist activity at rat GPR40 transfected in HEK293 cells assessed as increase in intracellular calcium level incubated for 1 hr by Fluo-8 dye based fluorescence analysis; assay type: functional, cell-based
Free fatty acid receptor 1 (Rattus norvegicus, UniProt Q8K3T4), sequence (Q8K3T4 whole entry): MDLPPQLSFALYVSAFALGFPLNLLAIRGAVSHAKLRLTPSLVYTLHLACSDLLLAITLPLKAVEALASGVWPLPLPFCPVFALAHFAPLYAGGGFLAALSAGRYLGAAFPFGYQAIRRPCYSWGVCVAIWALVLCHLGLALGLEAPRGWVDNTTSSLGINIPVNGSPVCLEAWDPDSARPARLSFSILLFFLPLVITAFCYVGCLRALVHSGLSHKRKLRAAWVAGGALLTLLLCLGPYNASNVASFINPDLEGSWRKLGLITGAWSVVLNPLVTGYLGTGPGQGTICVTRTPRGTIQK

[2] = biological target: T1, Free fatty acid receptor 1 (Homo sapiens, UniProt O14842); experiment: Agonist activity at human GPR40 transfected in HEK293 cells assessed as increase in intracellular calcium level incubated for 1 hr by Fluo-8 dye based fluorescence analysis; assay type: functional, cell-based
T1 sequence (O14842 whole entry): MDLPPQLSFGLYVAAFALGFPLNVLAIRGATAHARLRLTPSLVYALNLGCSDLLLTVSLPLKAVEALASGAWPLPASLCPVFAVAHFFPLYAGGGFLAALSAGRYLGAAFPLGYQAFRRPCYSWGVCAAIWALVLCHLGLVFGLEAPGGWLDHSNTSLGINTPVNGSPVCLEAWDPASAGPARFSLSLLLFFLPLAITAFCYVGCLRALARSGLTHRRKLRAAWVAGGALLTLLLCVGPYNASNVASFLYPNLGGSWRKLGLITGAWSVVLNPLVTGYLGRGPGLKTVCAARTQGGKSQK

Rattus norvegicus [3] = experiment: Anti-glycemic activity in fasted Sprague-Dawley ZDF rat assessed as increase in insulin secretion by measuring insulin level in plasma at 10 mg/kg administered 30 mins prior to glucose challenge measured after 140 mins by OGTT; assay type: functional; conditions: time 170 min, 2.833 h
Mus musculus [4] = species on record: Mus musculus; experiment: Anti-glycemic activity in C57 mouse assessed as reduction in blood glucose excursion measured for 120 mins by IPGTT; assay type: functional, organism-based
Rattus norvegicus [5] = experiment: Anti-glycemic activity in fasted Sprague-Dawley ZDF rat assessed as reduction in post-prandial hyperglycemia by measuring AUC(0 to 2 hrs) for blood glucose at 10 mg/kg administered daily for 8 days and measured on day 8 by OGTT; assay type: functional; conditions: time 8 day
Mus musculus [6] = experiment: Induction of GLP-1 secretion in GPR40 knock-out mouse at 100 mg/kg; assay type: functional, organism-based
[7] = biological target: T1, Free fatty acid receptor 1; experiment: Agonist activity at GPR40 in human islets assessed as induction of glucose-stimulated insulin secretion at 10 uM; assay type: tissue-based; conditions: Pancreatic islet
Rattus norvegicus [8] = experiment: Anti-glycemic activity in fasted Sprague-Dawley ZDF rat assessed as reduction in post-prandial hyperglycemia by measuring AUC(0 to 2 hrs) for blood glucose at 3 mg/kg administered for 1 day and measured on day 1 by OGTT; assay type: functional
[9] = biological target: Free fatty acid receptor 1 (Rattus norvegicus) (UniProt Q8K3T4); experiment: Agonist activity at GPR40 in rat INS1 (832/13) cells assessed as induction of glucose-stimulated insulin secretion in presence of 10 mM glucose; assay type: cell-based
Free fatty acid receptor 1 (Rattus norvegicus), sequence (Q8K3T4 whole entry): as the sequence (Q8K3T4 whole entry) above

Rattus norvegicus [10] = experiment: Anti-glycemic activity in fasted Sprague-Dawley ZDF rat assessed as increase in insulin secretion by measuring insulin level in plasma at 3 mg/kg administered 30 mins prior to glucose challenge measured after 140 mins by OGTT; assay type: functional; conditions: time 170 min, 2.833 h
Rattus norvegicus [11] = experiment: Anti-glycemic activity in fasted Sprague-Dawley ZDF rat assessed as reduction in post-prandial hyperglycemia by measuring AUC(0 to 2 hrs) for blood glucose at 3 mg/kg administered daily for 8 days and measured on day 8 by OGTT; assay type: functional; conditions: time 8 day
Mus musculus [12] = experiment: In vivo agonist activity at GPR40 in C57 mouse assessed as induction of GLP1 secretion at 100 mg/kg; assay type: functional, organism-based
Mus musculus [13] = species on record: Mus musculus; experiment: Anti-glycemic activity in GPR40 knockout mouse assessed as reduction in blood glucose excursion measured for 120 mins by IPGTT; assay type: functional, organism-based
Rattus norvegicus [14] = experiment: Anti-glycemic activity in fasted Sprague-Dawley ZDF rat assessed as reduction in post-prandial hyperglycemia by measuring AUC(0 to 2 hrs) for blood glucose at 10 mg/kg administered for 1 day and measured on day 1 by OGTT; assay type: functional
Mus musculus [15] = experiment: In vivo agonist activity at GPR119 in GPR40 knock-out mouse assessed as induction of GLP-1 secretion at 30 mg/kg; assay type: functional, organism-based
Mus musculus [16] = experiment: In vivo agonist activity at GPR119 in C57 mouse assessed as induction of GLP-1 secretion at 30 mg/kg; assay type: functional, organism-based

| EC50 [1] | EC50 [2] | Compound | further results |
| --- | --- | --- | --- |
| 0.0447 µM | 0.0094 µM | COc1ccc(F)c(-c2ccc(COc3cccc([C@@H](CC(=O)O)C4CC4)c3)nc2C2=CCCC2(C)C)c1 |  |
| 0.046 µM | 0.011 µM | COc1ccc(F)c(-c2cnc(COc3cccc([C@@H](CC(=O)O)C4CC4)c3)cc2C2=CCCC2(C)C)c1 |  |
| 0.0701 µM | 0.0124 µM | COc1ccc(F)c(-c2cnc(COc3cccc([C@@H](CC(=O)O)C4CC4)c3)nc2C2=CCCC2(C)C)c1 |  |
| 0.201 µM |  | COc1ccc(F)c(-c2ncc(COc3cccc([C@@H](CC(=O)O)C4CC4)c3)nc2C2=CCCC2(C)C)c1 |  |
| 0.0644 µM | 0.0213 µM | COc1ccc(F)c(-c2ncc(COc3cccc([C@@H](CC(=O)O)C4CC4)c3)cc2C2=CCCC2(C)C)c1 |  |

Second part, the compound before the results:

| Compound | EC50 [1] | EC50 [2] | further results |
| --- | --- | --- | --- |
| COc1ccc(F)c(-c2ncc(COc3cccc([C@@H](CC(=O)O)C4CC4)c3)nc2C=C(C)C)c1 |  | 0.0094 µM |  |
| Cc1cc(OCCCS(C)(=O)=O)cc(C)c1-c1cccc(COc2ccc3c(c2)OC[C@H]3CC(=O)O)c1 [FASIGLIFAM] |  |  | Activity (Rattus norvegicus [3]): 19250 ng/mL; Activity (Mus musculus [4]): Active; Activity (Rattus norvegicus [5]): 135502 ng/mL.hr; Activity (Mus musculus [6]): inactive; Activity [7]: inactive; Activity (Rattus norvegicus [8]): 12194 ng/mL.hr; Activity ([9]; INS-1 832/13): inactive; Activity (Rattus norvegicus [10]): 4020 ng/mL; Activity (Rattus norvegicus [11]): 20561 ng/mL.hr; Activity (Mus musculus [12]): inactive; Activity (Mus musculus [13]): inactive; Activity (Rattus norvegicus [14]): 59293 ng/mL.hr |
| CCCCc1nc(COc2cccc([C@@H](CC(=O)O)C3CC3)c2)cnc1-c1cc(OC)ccc1F | 0.028 µM | 0.0025 µM |  |
| COc1ccc(F)c(-c2ncc(COc3cccc([C@@H](CC(=O)O)C4CC4)c3)nc2-c2cc(C)cc(C)c2)c1 |  | 0.0075 µM |  |
| COc1ccc(F)c(-c2ncc(COc3cccc([C@@H](CC(=O)O)C4CC4)c3)nc2CC(C)(C)C)c1 |  |  | EC50 ([2]; hek293): 0.002 µM |
| CC(C)OC(=O)N1CCC(Oc2ncnc3c2CCN3c2ccc(S(C)(=O)=O)cc2F)CC1 |  |  | Activity (Mus musculus [15]): Active; Activity (Mus musculus [16]): Active |
| COc1ccc(Cl)cc1C(=O)NCCc1ccc(S(=O)(=O)NC(=O)NC2CCCCC2)cc1 |  |  | Activity (Mus musculus [4]): Active |
| COc1ccc(F)c(-c2ncc(COc3cccc([C@@H](CC(=O)O)C4CC4)c3)nc2N2CC3(CCC3)C2)c1 |  | 0.0045 µM |  |
| COc1ccc(F)c(-c2ccc(COc3cccc([C@@H](CC(=O)O)C4CC4)c3)cc2C2=CCCC2(C)C)c1 | 0.0114 µM | 0.0035 µM | Activity ([7]; filed as agonist): Active; Activity ([9]; INS-1 832/13, filed as agonist): Active |
| COc1cc(-c2ncc(COc3cccc([C@@H](CC(=O)O)C4CC4)c3)nc2C2=CCCC2(C)C)c(F)cn1 |  | 0.011 µM |  |
| COc1ccc(F)c(-c2ncc(COc3cccc([C@@H](CC(=O)O)C4CC4)c3)nc2OCC(C)C)c1 |  | 0.0096 µM |  |
